{
  "source": "patent US11351134B2",
  "about": "“Small molecule agents, compositions, and formulations, for internal use, displaying inhibitory activity against gram-positive and/or gram-negative organisms” (NATUREZA, INC., priority 2017, dated 2022)",
  "tested_on": "representative Gram-positive pathogens and yeast",
  "assay": "Broth microdilution of lecithin/chitosan compositions, sonicated and/or filtered",
  "assay_type": "cell-based",
  "details": "composition with lecithin and chitosan",
  "text": "In a further preparation, lauric acid derivative, 12-aminododecanoic acid or 12-amino-1-dodecanoic acid methyl ester, was suspended individually (and independently) in an organic solvent, chloroform, and mixed with water, generally under agitated conditions. Here, for each sample, the amount of water to the amount of chloroform was at least 2:1, and was as high as 10:1. This was followed by chloroform evaporation, generally under vacuum using a freeze dryer. After removal of the chloroform, a lecithin solution was added to each sample. The lecithin was in a solution of acetic acid (e.g., 98 mM acetic acid and 2 mM sodium acetate), in which the amount of lecithin in solution was between about 1% to 5%. With addition of lecithin, each sample mixture contained up to about 4.8% lecithin (or generally about 5% or less), and up to about 7.8% of one of the lauric acid derivatives (or generally about 8% or less). pH of the solution was neutral. It is noted that the lecithin should be in a suitable form (e.g., solution or granules) acceptable for internal utilization (e.g., pharmaceutical grade). The lecithin may also include cholesterol, or other lecithin variants as described above, with similar results. Chitosan was then added to each of the samples, and each sample was then independently sonicated, followed by independent sterilization by high pressure filtration. […]",
  "data": [
    {"molecule": "COC(=O)CCCCCCCCCCCN.Cl", "note": "[12-amino-1-dodecanoic acid methyl ester HCl]", "values": [
      {"measurement": "Growth inhibitory activity against representative Gram-positive pathogens and yeast", "value": "exhibited growth inhibitory activity"}
    ]}
  ]
}
